Assay results reported in patent US6461997B1, “Triazole sulfones having herbicidal activity” (Monsanto Technology LLC, priority 1999, dated 2002).

Key:
[1] = system: SOLNI (black nightshade); assay: Pre-emergence herbicidal activity, warm season; assay type: in vivo, Solanum nigrum; settings: for Pre-emergence activity (GR80) SOLNI: GR80 = lowest tested rate (300, 100, 30, 10 g/ha) with 80% or greater inhibition, approx. 14 days after treating, 30/21° C.; for inhibition at 10 g/ha / inhibition at 30 g/ha / inhibition at 100 g/ha / inhibition at 300 g/ha / inhibition at 900 g/ha: Solanum nigrum, pre-emergence application, read-out: Percent inhibition, weed SOLNI
Outline: (§1)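 Seeds sown in sterilised fertilised topsoil received surface-applied compound in 50:50 acetone/water, typically at 300, 100, 30 and 10 g/ha, then greenhouse-grown at 30/21° C (warm-season species) or 18/13° C (cool-season species). Percent inhibition versus untreated plants was scored at about 14 days, giving GR80; an asterisk marks activity short of 80% at the top rate.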

[2] = system: CHEAL (common lambsquarters); assay: Pre-emergence herbicidal activity, warm season; assay type: in vivo, Chenopodium album; settings: GR80 = lowest tested rate (300, 100, 30, 10 g/ha) with 80% or greater inhibition; approx. 14 days after treating; 30/21° C.
Outline: as §1

[3] = system: ALOMY (blackgrass); assay: Pre-emergence herbicidal activity, cool season; assay type: in vivo, Alopecurus myosuroides; settings: GR80 = lowest tested rate (300, 100, 30, 10 g/ha) with 80% or greater inhibition; approx. 14 days after treating; 18/13° C.
Outline: as §1

[4] = system: XANST (cocklebur); assay: Pre-plant incorporated (PPI) herbicidal activity, warm season; assay type: in vivo, Xanthium strumarium; settings: PPI application; for inhibition at 10 g/ha / inhibition at 30 g/ha / inhibition at 100 g/ha / inhibition at 300 g/ha / inhibition at 900 g/ha: Xanthium strumarium, read-out: Percent inhibition XANST
Description: In another set of tests, the pre-plant incorporated (PPI) activity of compounds of this invention was evaluated on the same species as for the pre-emergence tests described above. In the PPI tests the following procedure, designed to simulate PPI application, was used.
(§2) A pre-prepared topsoil mixture (described above) was placed in a pot and compacted to a depth of 1.0 to 1.25 cm from the top of the pot. Seeds of each of several monocotyledonous and dicotyledonous annual plant species were placed on top of the soil. A sufficient quantity of soil to cover the seeds and level fill the pot was weighed into an open container. A known amount of the test compound was dissolved or suspended in an organic solvent and applied by spraying to this cover soil. The cover soil was thoroughly mixed to distribute the test compound throughout the cover soil, and was then applied as a cover layer over the seeds. Untreated soil was used as a cover layer for control pots. After treatment the plants were placed in a greenhouse where they received 0.64 cm of overhead irrigation. All subsequent watering consisted of a light overhead mist and/or subirrigation as needed for germination and growth. Tables 9 and 10 below relate to warm season plant species which were placed after pre-emergence treatment in a greenhouse with a 30/21° C. day/night temperature regime. Tables 11 and 12 below relates to cool season plant species placed after pre-emergence treatment in a greenhouse or growth chamber with an 18/13° C. day/night temperature regime. Only the compounds of Examples 1, 6, 8, 11, 13 and 15-20 were included in PPI tests.
(§3) Approximately 14 days after planting and treating, the plants were observed and herbicidal efficacy recorded as percent inhibition by comparison with untreated plants.

[5] = system: ALOMY (blackgrass); assay: Post-emergence herbicidal activity, cool season; assay type: in vivo, Alopecurus myosuroides; settings: abraded plants sprayed at 300, 100, 30 and 10 g/ha; about 14 days after treatment
Description: In another set of tests, the post-emergence activity of compounds of this invention was evaluated on the cool season species listed above. The following procedure was used.
A pre-prepared topsoil mixture (described above) was placed in a pot and compacted to a depth of 1.0 to 1.25 cm from the top of the pot. Seeds of each of several monocotyledonous and dicotyledonous annual plant species were placed on top of the soil. The seeds were covered with a mixture of 50% topsoil and 50% Rediearth™ in sufficient quantity to level-fill the pots. The pots were then placed on a greenhouse bench and subirrigated as needed.
When plants growing from the seeds had emerged and reached a suitable growth stage for post-emergence treatment, typically 9 to 14 days after planting, above-ground parts of the plants were subjected to a pre-treatment involving abrasion to create greater opportunity for foliar uptake of subsequently applied compounds. Abrasion was performed using garnet 200w particles applied with a Sears Craftsman hand-held sandblaster operated at approximately 850 kPa (50 psig) pressure.
A known amount of each test compound dissolved or suspended in an appropriate organic solvent was diluted with a 50:50 mix of acetone and water and applied to the plants by spraying with a standard spray nozzle in a spray volume of […] at a spray pressure of 511 kPa (30 psig). Only the compounds of Examples 1, 8-15 and 17-22 were included in post-emergence tests. Application rates for these compounds were 300, 100, 30 and 10 g/ha. Control plants were abraded but not sprayed.
After treatment the plants were placed in a greenhouse with an 18/13° C. day/night temperature regime and were subsequently watered as needed for growth. Approximately 14 days after treatment, the plants were observed and herbicidal efficacy recorded as percent inhibition by comparison with control plants. GR80 values were assigned for each compound as described above for the pre-emergence tests.

[6] = system: soybean (GLYMX); assay: Selectivity test, PPI, warm season crop; assay type: in vivo, Glycine max; settings: PPI application; for inhibition at 10 g/ha / inhibition at 30 g/ha / inhibition at 100 g/ha / inhibition at 300 g/ha / inhibition at 900 g/ha: Glycine max, read-out: Percent inhibition GLYMX
Description: as §2, §3
Additional pre-emergence and PPI tests were conducted by the procedures described above, on warm and cool season weed species in the presence of crop species, to assess herbicidal selectivity. Crop species included in warm season tests were corn (Zea mays, ZEAMX), rice (Oryza sativa, ORYSA) and soybean (Glycine max, GLYMX). Crop species included in cool season tests were wheat (Triticum aestivum, TRZAW), barley (Hordeunm vulgare, HORVX) and oilseed rape (Brassica napus, BRSNS).
Tables 15 and 16 relate to pre-emergence and PPI tests respectively on warm season species. Table 17 relates to pre-emergence tests on cool season species.

SMILES	Pre-emergence activity (GR80) SOLNI [1]	Pre-emergence activity (GR80) CHEAL [2]	Pre-emergence activity (GR80) ALOMY [3]	inhibition at 10 g/ha ([4]; 10 g/ha)	inhibition at 30 g/ha ([4]; 30 g/ha)	inhibition at 100 g/ha ([4]; 100 g/ha)	inhibition at 300 g/ha ([4]; 300 g/ha)	inhibition at 900 g/ha ([4]; 900 g/ha)	Post-emergence activity GR80, ALOMY [5]	inhibition at 10 g/ha ([6]; 10 g/ha)	inhibition at 30 g/ha ([6]; 30 g/ha)	inhibition at 100 g/ha ([6]; 100 g/ha)	inhibition at 300 g/ha ([6]; 300 g/ha)	inhibition at 900 g/ha ([6]; 900 g/ha)	Percent inhibition XANST ([4]; 30 g/ha)	Percent inhibition XANST ([4]; 100 g/ha)	Percent inhibition XANST ([4]; 300 g/ha)	Percent inhibition XANST ([4]; 900 g/ha)	Percent inhibition GLYMX ([6]; 30 g/ha)	Percent inhibition GLYMX ([6]; 100 g/ha)	also measured
CCN(CC)C(=O)n1cnc(S(=O)(=O)C(F)(F)Br)n1 [Example 1, 3-(bromodifluoromethylsulfonyl)-1-(N,N-diethylcarbamoyl)-1,2,4-triazole]	100 g/ha	300 g/ha	300 g/ha	0%	0%	0%	0%	0%	[empty]	0%	0%	0%	0%	40%							inhibition at 10 g/ha [1]: 0%; inhibition at 30 g/ha [1]: 0%; inhibition at 100 g/ha [1]: 0%; inhibition at 300 g/ha [1]: 0%; inhibition at 900 g/ha [1]: 20%
CCN(CC)C(=O)n1cnc(S(=O)(=O)C(F)(F)C(F)(F)SC)n1 [Example 14]	300 g/ha	300 g/ha	100 g/ha						[empty]												
CCN(CC)C(=O)n1cnc(S(=O)(=O)C(F)(F)F)n1 [Example 2]	300 g/ha	100 g/ha	100 g/ha												0%	0%	0%	0%	0%	0%	Percent inhibition GLYMX ([6]; 300 g/ha): 10%; Percent inhibition GLYMX ([6]; 900 g/ha): 20%
C=C(C)CC(F)(F)S(=O)(=O)c1ncn(C(=O)N(CC)CC)n1 [Example 18]	100 g/ha	300 g/ha	300 g/ha	0%	0%	0%	0%	30%	[empty]	0%	0%	0%	0%	50%							
CCSC(F)(F)S(=O)(=O)c1ncn(C(=O)N(CC)CC)n1 [Example 8, 1-(N,N-diethylcarbamoyl)-3-[difluoro(ethylthio)methylsulfonyl]-1,2,4-triazole]	100 g/ha	100 g/ha	100 g/ha		0%	0%	20%	50%	[empty]		0%	10%	40%	65%							
C=C(Br)CC(F)(F)S(=O)(=O)c1ncn(C(=O)N(CC)CC)n1 [Example 19]	300 g/ha	100 g/ha	100 g/ha	0%	0%	0%	0%	90%	[empty]	0%	0%	0%	0%	20%							
CCN(CC)C(=O)n1cnc(S(=O)(=O)C(F)(F)C(F)F)n1 [Example 16]	100 g/ha	300 g/ha	100 g/ha												0%	0%	0%	95%	0%	10%	Percent inhibition XANST ([4]; 10 g/ha): 0%; Percent inhibition GLYMX ([6]; 10 g/ha): 0%; Percent inhibition GLYMX ([6]; 300 g/ha): 10%; Percent inhibition GLYMX ([6]; 900 g/ha): 80%
CCN(CC)C(=O)n1cnc(S(=O)(=O)C(F)(F)C(F)(F)Br)n1 [Example 4]	300 g/ha	30 g/ha	300 g/ha												0%	0%	0%	40%	0%	0%	Percent inhibition GLYMX ([6]; 300 g/ha): 0%; Percent inhibition GLYMX ([6]; 900 g/ha): 10%
CCN(CC)C(=O)n1cnc(S(=O)(=O)C(F)F)n1 [Example 15, 1-(N,N-diethylcarbamoyl)-3-(difluoromethylsulfonyl)-1,2,4-triazole]	100 g/ha			0%	0%	0%	0%		[empty]	0%	0%	0%	15%	65%							inhibition at 10 g/ha [1]: 0%; inhibition at 30 g/ha [1]: 0%; inhibition at 100 g/ha [1]: 0%; inhibition at 300 g/ha [1]: 0%; inhibition at 900 g/ha [1]: 0%
CCN(CC)C(=O)n1cnc(S(=O)(=O)C(F)(F)Cl)n1 [Example 3]	100 g/ha	100 g/ha	100 g/ha												0%	0%	0%	60%	0%	0%	Percent inhibition GLYMX ([6]; 300 g/ha): 0%; Percent inhibition GLYMX ([6]; 900 g/ha): 15%
CCN(CC)C(=O)n1cnc(S(=O)(=O)C(F)(F)C(=O)c2ccccc2)n1 [Example 6]		300 g/ha	100 g/ha																		
